# ChEMBL document CHEMBL1129924, “Synthesis and biological activity of cyclic analogues of MPPG and MCPG as metabotropic glutamate receptor antagonists” (Bioorg Med Chem Lett, 1997)
# Legend:
# Assay type in all cases: functional
# [1] = target: Metabotropic glutamate receptor 2 (Rattus norvegicus, UniProt P31421); experiment: Antagonistic activity against Metabotropic glutamate receptor 2 was determined
# [2] = target: T1, Metabotropic glutamate receptor 5 (Rattus norvegicus, UniProt P31424); experiment: Antagonistic activity against Metabotropic glutamate receptor 5 was determined at 1 mM; NE = No significant effect observed
# T1 sequence (P31424 whole entry): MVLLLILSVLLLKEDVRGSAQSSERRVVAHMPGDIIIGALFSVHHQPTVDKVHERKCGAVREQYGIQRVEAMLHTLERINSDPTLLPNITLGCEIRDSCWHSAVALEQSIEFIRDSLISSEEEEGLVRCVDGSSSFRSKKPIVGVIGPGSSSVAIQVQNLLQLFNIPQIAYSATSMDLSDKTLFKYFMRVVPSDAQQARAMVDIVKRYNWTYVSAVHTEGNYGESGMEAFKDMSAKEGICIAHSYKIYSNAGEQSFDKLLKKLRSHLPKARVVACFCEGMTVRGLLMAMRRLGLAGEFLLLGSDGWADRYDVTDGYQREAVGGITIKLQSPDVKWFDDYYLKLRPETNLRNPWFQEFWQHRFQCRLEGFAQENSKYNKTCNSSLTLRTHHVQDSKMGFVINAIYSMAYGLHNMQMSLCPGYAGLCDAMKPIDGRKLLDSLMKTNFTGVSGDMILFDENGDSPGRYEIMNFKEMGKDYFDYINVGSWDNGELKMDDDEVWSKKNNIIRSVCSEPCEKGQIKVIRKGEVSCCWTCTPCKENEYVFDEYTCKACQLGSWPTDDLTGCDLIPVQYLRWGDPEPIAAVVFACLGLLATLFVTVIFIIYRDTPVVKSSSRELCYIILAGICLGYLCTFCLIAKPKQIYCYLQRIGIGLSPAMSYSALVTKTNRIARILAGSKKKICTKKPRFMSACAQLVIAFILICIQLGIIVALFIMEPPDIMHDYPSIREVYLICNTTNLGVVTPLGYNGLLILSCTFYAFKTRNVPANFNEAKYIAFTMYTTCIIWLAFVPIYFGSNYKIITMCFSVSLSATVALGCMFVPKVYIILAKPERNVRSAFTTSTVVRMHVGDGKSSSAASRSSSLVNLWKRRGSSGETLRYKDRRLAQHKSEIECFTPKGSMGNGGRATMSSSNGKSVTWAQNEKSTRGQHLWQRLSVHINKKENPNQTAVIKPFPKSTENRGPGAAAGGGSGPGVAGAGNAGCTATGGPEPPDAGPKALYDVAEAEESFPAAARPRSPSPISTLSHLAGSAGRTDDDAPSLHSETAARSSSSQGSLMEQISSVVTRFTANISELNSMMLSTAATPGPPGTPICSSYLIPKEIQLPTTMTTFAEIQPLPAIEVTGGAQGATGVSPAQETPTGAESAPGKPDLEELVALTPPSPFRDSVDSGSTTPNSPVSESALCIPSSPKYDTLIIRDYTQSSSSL
# [3] = target: T2, Metabotropic glutamate receptor 1 (Rattus norvegicus, UniProt P23385); experiment: Antagonistic activity against Metabotropic glutamate receptor 1 was determined at 1 mM; NE = No significant effect observed
# T2 sequence (P23385 whole entry): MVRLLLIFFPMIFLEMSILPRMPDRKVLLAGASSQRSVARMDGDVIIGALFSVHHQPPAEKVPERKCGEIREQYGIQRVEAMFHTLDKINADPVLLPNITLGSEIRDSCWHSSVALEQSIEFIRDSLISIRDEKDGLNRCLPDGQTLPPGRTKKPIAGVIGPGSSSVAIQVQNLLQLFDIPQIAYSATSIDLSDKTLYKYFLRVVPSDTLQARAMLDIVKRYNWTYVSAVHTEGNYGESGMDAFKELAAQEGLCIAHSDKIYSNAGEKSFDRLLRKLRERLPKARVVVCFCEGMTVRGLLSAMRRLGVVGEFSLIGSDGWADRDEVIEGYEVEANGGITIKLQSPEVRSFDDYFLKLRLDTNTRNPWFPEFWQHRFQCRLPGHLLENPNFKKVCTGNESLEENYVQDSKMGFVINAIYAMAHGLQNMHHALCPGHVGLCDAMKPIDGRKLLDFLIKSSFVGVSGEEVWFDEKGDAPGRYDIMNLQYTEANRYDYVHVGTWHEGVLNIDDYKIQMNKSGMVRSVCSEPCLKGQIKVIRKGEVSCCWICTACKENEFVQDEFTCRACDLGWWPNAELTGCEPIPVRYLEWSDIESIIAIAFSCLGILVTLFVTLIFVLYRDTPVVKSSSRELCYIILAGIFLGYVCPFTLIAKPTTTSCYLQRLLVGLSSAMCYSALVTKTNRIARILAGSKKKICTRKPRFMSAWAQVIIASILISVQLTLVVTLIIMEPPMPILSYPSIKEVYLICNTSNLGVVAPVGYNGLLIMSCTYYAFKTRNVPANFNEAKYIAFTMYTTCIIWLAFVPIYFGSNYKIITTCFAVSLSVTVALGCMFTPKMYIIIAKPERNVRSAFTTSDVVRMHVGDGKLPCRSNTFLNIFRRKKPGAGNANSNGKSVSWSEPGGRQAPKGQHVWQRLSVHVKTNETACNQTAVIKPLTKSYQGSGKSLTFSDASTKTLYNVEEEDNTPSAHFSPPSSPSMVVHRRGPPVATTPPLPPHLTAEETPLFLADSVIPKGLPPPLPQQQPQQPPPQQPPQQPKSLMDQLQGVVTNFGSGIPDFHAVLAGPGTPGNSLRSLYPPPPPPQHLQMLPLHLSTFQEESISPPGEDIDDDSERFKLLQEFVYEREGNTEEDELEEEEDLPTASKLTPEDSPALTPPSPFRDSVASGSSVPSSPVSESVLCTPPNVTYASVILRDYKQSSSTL
# [4] = target: Metabotropic glutamate receptor 6 (Rattus norvegicus, UniProt P35349); experiment: Antagonistic activity against Metabotropic glutamate receptor 6 was determined at 1 mM; NE = No significant effect observed
# Metabotropic glutamate receptor 6, sequence (P35349 whole entry): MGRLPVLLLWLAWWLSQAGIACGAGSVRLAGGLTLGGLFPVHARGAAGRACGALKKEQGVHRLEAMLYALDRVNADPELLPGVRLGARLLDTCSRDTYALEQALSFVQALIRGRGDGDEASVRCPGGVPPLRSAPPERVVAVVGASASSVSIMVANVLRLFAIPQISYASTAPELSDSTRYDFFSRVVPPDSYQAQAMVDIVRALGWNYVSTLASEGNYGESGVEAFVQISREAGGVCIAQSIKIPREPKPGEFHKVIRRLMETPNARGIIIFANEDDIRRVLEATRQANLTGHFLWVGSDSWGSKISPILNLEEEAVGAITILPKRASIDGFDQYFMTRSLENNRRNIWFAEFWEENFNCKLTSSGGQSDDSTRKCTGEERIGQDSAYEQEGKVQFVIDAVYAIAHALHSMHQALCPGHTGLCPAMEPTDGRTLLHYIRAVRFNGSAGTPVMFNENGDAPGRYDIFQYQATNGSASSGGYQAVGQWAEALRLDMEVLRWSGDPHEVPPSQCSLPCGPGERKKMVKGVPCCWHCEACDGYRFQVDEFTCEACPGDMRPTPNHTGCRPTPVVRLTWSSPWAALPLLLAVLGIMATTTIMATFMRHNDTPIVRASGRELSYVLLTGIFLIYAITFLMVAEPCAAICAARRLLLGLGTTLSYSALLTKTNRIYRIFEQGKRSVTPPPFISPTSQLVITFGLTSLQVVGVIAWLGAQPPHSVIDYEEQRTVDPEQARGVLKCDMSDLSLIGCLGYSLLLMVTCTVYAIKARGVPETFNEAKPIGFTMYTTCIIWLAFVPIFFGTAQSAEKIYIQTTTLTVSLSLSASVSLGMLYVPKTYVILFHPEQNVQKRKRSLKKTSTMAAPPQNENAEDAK
# [5] = target: T1, Metabotropic glutamate receptor 5; experiment: Antagonistic activity against Metabotropic glutamate receptor 5 was determined
# [6] = target: T2, Metabotropic glutamate receptor 1; experiment: Antagonistic activity against Metabotropic glutamate receptor 1 was determined
# Metabotropic glutamate receptor 2, sequence (P31421 whole entry): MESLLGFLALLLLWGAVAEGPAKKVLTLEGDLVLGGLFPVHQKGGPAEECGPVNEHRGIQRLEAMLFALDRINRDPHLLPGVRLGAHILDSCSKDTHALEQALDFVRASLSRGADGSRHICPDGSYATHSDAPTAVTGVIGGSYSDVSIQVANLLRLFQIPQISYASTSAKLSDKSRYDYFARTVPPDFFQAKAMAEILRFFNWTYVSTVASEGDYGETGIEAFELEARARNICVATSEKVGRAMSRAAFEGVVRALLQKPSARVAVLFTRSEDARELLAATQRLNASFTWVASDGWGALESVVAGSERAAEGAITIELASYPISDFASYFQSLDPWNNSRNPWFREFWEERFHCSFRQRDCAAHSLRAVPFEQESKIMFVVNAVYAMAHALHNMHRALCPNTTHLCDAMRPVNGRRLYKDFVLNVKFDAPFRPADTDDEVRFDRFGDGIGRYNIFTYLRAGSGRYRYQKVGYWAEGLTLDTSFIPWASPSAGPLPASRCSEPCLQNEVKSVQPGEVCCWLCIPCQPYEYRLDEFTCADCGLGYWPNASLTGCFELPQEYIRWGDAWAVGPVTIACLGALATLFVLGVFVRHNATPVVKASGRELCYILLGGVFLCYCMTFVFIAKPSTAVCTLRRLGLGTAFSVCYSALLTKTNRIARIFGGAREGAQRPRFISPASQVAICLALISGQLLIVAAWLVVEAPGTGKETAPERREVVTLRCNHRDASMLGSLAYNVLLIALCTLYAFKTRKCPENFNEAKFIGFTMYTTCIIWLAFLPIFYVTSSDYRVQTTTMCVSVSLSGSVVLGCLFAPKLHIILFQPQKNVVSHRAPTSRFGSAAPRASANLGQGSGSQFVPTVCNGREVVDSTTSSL
Compound,IC50 [1],IC50 [2],IC50 [3],IC50 [4],IC50 [5],IC50 [6]
NC1(C(=O)O)CCc2cc(P(=O)(O)O)ccc21 (stereo not drawn),30 µM,No effect,No effect,No effect,–,–
CC1(C)CC(N)(C(=O)O)c2ccc(C(=O)O)cc2O1 (stereo not drawn),43 µM,–,–,No effect,355 µM,93 µM
